Reference: publication PMC7008132 (European journal of medicinal chemistry, 2019)

Experiments:
[1] = tested on: HCT 116 cells; assay: FITC-Annexin V/propidium iodide apoptosis analysis; settings: HCT 116 (p53-wild-type); 72 h; Annexin V/PI flow cytometry
[2] = tested on: p53-wild-type SJSA-1 and U-2 OS cells; settings: 24 h treatment, nutlin-3a 5 μM positive control
[3] = Stability of compound in solution; format: physicochemical; settings: while in solution
[4] = biological target: human MDM2 (residues 1–118) (Homo sapiens, UniProt Q00987); assay: Fluorescence polarization; settings: fluorescence polarization assay; qualitative statement

Row | MDM2 binding activity in words [4] | Structure (SMILES) | other results
1 |  | CC(C)(C)NC(=O)[C@H](c1c(C(=O)O)[nH]c2cc(Cl)ccc12)N(C=O)Cc1ccc(OCc2ccccc2Br)cc1 [(−)-6m] | Induction of apoptosis [1]: induced apoptosis in p53-wild-type HCT 116 cells, comparable to nutlin-3a
2 |  | COc1ccc(C2=N[C@@H](c3ccc(Cl)cc3)[C@@H](c3ccc(Cl)cc3)N2C(=O)N2CCNC(=O)C2)c(OC(C)C)c1 [Nutlin-3a] | Induction of MDM2 and p21 expression [2]: potent induction of MDM2 and p21
3 |  | CC(C)(C)NC(=O)C(c1c(C(=O)O)[nH]c2cc(Cl)ccc12)N(C=O)Cc1ccc(NCc2ccc(Br)cc2)cc1 (stereo not shown) [compound 8, 3-(2-(tert-butylamino)-1-(N-(4-((4-bromobenzyl)amino)benzyl)formamido)-2-oxoethyl)-6-chloro-1H-indole-2-carboxylic acid] | Stability in solution [3]: susceptible to degradation
4 | total loss of activity | Cn1c(C(=O)O)c(C(C(=O)NC(C)(C)C)N(C=O)Cc2ccc(OCc3ccccc3Br)cc2)c2ccc(Cl)cc21 (stereo not shown) [compound 9, 3-(1-(N-(4-((2-bromobenzyl)oxy)benzyl)formamido)-2-(tert-butylamino)-2-oxoethyl)-6-chloro-1-methyl-1H-indole-2-carboxylic acid] | 
5 | no binding | CC(C)(C)NC(=O)C(c1ccc(Cl)cc1)N(C=O)Cc1ccc(OCc2ccc(Cl)c(Cl)c2)cc1 (stereo not shown) [compound 10, N-(tert-butyl)-2-(4-chlorophenyl)-2-(N-(4-((3,4-dichlorobenzyl)oxy)benzyl) formamido)acetamide] | 
6 | no binding | CC(C)(C)NC(=O)C(c1cccc(Cl)c1)N(C=O)Cc1ccc(Cl)cc1 (stereo not shown) [compound 11, N-(tert-butyl)-2-(N-(4-chlorobenzyl)formamido)-2-(3-chlorophenyl)acetamide] | 
7 | almost in loss of activity | O=CN(Cc1ccc(OCc2ccc(F)cc2)cc1)C(C(=O)NC12CC3CC(CC(C3)C1)C2)c1c(C(=O)O)[nH]c2cc(Cl)ccc12 (stereo not shown) [compound 17, 3-(2-((3s,5s,7s)-adamantan-1-ylamino)-1-(N-(4-((4-fluorobenzyl)oxy)benzyl)formamido)-2-oxoethyl)-6-chloro-1H-indole-2-carboxylic acid] | 
